From patent US20020137929A1, “1 - (3-heterocyclylphenyl) isothiourea, -isourea, -guanidine and -amidine herbicidal agents” (Intellectual Property Department, BASF Aktiengesellschaft, priority 1998, published 2002)

Tests used:
[1] = tested on: CASOB (Sicklepod); test: Postemergence herbicidal evaluation; format: in vivo, Cassia obtusifolia; details: postemergence
Outline: (§1)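 Compound is applied as a foliar spray to seedlings about two weeks old, formulated in equal parts acetone and water with 0.5% TWEEN 20 and delivered at 40 psi to give about 0.0156–0.500 kg per hectare. Injury is rated visually 0–9 after four to five weeks.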

[2] = tested on: GALAP (Galium); test: Postemergence herbicidal evaluation; format: in vivo, Galium aparine; details: postemergence
Outline: as §1

[3] = tested on: GLXMAW (Soybean, Williams); test: Preemergence herbicidal evaluation; format: in vivo, Glycine max, (L.) Merr. cv Williams; details: rated 4-5 weeks after treatment
Outline: (§2)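 Greenhouse preemergence test: seed-soil mix sown on ~1 inch soil; aqueous acetone spray at equivalent of ~0.0156–0.500 kg/ha; greenhouse-held and watered; scored 0–9 visually at 4–5 weeks.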

[4] = tested on: ZEAMX (Corn, Field); test: Postemergence herbicidal evaluation; format: in vivo, Zea mays; details: postemergence
Outline: as §1

[5] = tested on: MOOVA (Monochoria); test: Preemergence weed control under flooded paddy conditions; format: in vivo, Monochoria vaginalis; details: rated 3-4 weeks after treatment
Outline: (§3)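 Herbicidal effect is scored visually on a 0-9 scale against an untreated control, three to four weeks after compounds are pipetted into the flood water (1.5 to 3 cm deep) over seeds planted in silt loam at 0.5 cm depth. Rates: about 0.0313 to 0.500 kg/ha.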

[6] = tested on: ORYSAT (Rice, Tebonnet); test: Preemergence herbicidal evaluation; format: in vivo, Oryza sativa, (L.) Tebonnet; details: rated 4-5 weeks after treatment
Outline: as §2

[7] = tested on: CHEAL (Lambsquarters, Common); test: Postemergence herbicidal evaluation; format: in vivo, Chenopodium album; details: postemergence
Outline: as §1

[8] = tested on: ORYSAT (Rice, Tebonnet); test: Postemergence herbicidal evaluation; format: in vivo, Oryza sativa, (L.) Tebonnet; details: postemergence
Outline: as §1

[9] = tested on: AMBEL (Ragweed, Common); test: Preemergence herbicidal evaluation; format: in vivo, Ambrosia artemisifolia; details: rated 4-5 weeks after treatment
Outline: as §2

[10] = tested on: SETVI (Foxtail, Green); test: Preemergence herbicidal evaluation; format: in vivo, Setaria viridis; details: rated 4-5 weeks after treatment
Outline: as §2

[11] = tested on: CYPSE (Flatsedge); test: Preemergence weed control under flooded paddy conditions; format: in vivo, Cyperus serotinus; details: rated 3-4 weeks after treatment
Outline: as §3

Cn1c(C(F)(F)F)cc(=O)n(-c2cc(N=C3SCC(=O)N3CC(=O)OCC3CC3)c(Cl)cc2F)c1=O [Compound 124, Cyclopropylmethyl 2-{{2-chloro-5-[3,6-dihydro-3-methyl-2,6-dioxo-4-(trifluoromethyl)-1(2H)-pyrimidinyl]-4-fluorophenyl}imino}-4-oxo-3-thiazolidineacetate]
herbicidal rating CASOB ([1]; rate 0.0156 kg/ha): 2.0
herbicidal rating CASOB ([1]; rate 0.0313 kg/ha): 2.0
herbicidal rating CASOB ([1]; rate 0.0625 kg/ha): 3.0
herbicidal rating GALAP ([2]; rate 0.0156 kg/ha): 0.0
herbicidal rating GALAP ([2]; rate 0.0313 kg/ha): 1.0
herbicidal rating GALAP ([2]; rate 0.0625 kg/ha): 6.0
Preemergence herbicidal rating GLXMAW ([3]; rate 0.0156 kg/ha): 0.0
Preemergence herbicidal rating GLXMAW ([3]; rate 0.0313 kg/ha): 0.0
Preemergence herbicidal rating GLXMAW ([3]; rate 0.0625 kg/ha): 0.0
Preemergence herbicidal rating GLXMAW ([3]; rate 0.1250 kg/ha): 0.0
Preemergence herbicidal rating GLXMAW ([3]; rate 0.2500 kg/ha): 0.0
Preemergence herbicidal rating GLXMAW ([3]; rate 0.5000 kg/ha): 3.0
herbicidal rating ZEAMX ([4]; rate 0.0156 kg/ha): 6.3
herbicidal rating ZEAMX ([4]; rate 0.0313 kg/ha): 7.3
herbicidal rating ZEAMX ([4]; rate 0.0625 kg/ha): 8.0
herbicidal effect rating, MOOVA ([5]; 0.0313 kg/ha): 0.0
herbicidal effect rating, MOOVA ([5]; 0.0625 kg/ha): 0.0
herbicidal effect rating, MOOVA ([5]; 0.1250 kg/ha): 0.0
herbicidal effect rating, MOOVA ([5]; 0.2500 kg/ha): 7.0
Preemergence herbicidal rating ORYSAT ([6]; rate 0.0156 kg/ha): 0.0
Preemergence herbicidal rating ORYSAT ([6]; rate 0.0313 kg/ha): 0.0
Preemergence herbicidal rating ORYSAT ([6]; rate 0.0625 kg/ha): 0.0
Preemergence herbicidal rating ORYSAT ([6]; rate 0.1250 kg/ha): 0.0
Preemergence herbicidal rating ORYSAT ([6]; rate 0.2500 kg/ha): 0.0
Preemergence herbicidal rating ORYSAT ([6]; rate 0.5000 kg/ha): 2.0
herbicidal rating CHEAL ([7]; rate 0.0156 kg/ha): 9.0
herbicidal rating CHEAL ([7]; rate 0.0313 kg/ha): 9.0
herbicidal rating CHEAL ([7]; rate 0.0625 kg/ha): 9.0
herbicidal rating ORYSAT ([8]; rate 0.0156 kg/ha): 3.3
herbicidal rating ORYSAT ([8]; rate 0.0313 kg/ha): 3.0
herbicidal rating ORYSAT ([8]; rate 0.0625 kg/ha): 3.0
Preemergence herbicidal rating AMBEL ([9]; rate 0.0156 kg/ha): 0.0
Preemergence herbicidal rating AMBEL ([9]; rate 0.0313 kg/ha): 0.0
Preemergence herbicidal rating AMBEL ([9]; rate 0.0625 kg/ha): 4.0
Preemergence herbicidal rating AMBEL ([9]; rate 0.1250 kg/ha): 9.0
Preemergence herbicidal rating AMBEL ([9]; rate 0.2500 kg/ha): 9.0
Preemergence herbicidal rating AMBEL ([9]; rate 0.5000 kg/ha): 9.0
Preemergence herbicidal rating SETVI ([10]; rate 0.0156 kg/ha): 0.0
Preemergence herbicidal rating SETVI ([10]; rate 0.0313 kg/ha): 0.0
Preemergence herbicidal rating SETVI ([10]; rate 0.0625 kg/ha): 0.0
Preemergence herbicidal rating SETVI ([10]; rate 0.1250 kg/ha): 0.0
Preemergence herbicidal rating SETVI ([10]; rate 0.2500 kg/ha): 4.0
Preemergence herbicidal rating SETVI ([10]; rate 0.5000 kg/ha): 9.0
herbicidal effect rating, CYPSE ([11]; 0.0313 kg/ha): 0.0
herbicidal effect rating, CYPSE ([11]; 0.0625 kg/ha): 0.0
herbicidal effect rating, CYPSE ([11]; 0.1250 kg/ha): 2.0
herbicidal effect rating, CYPSE ([11]; 0.2500 kg/ha): 3.0

CCOC(=O)CN1C(=O)C(SC)SC1=Nc1cc(-n2c(=O)cc(C(F)(F)F)n(C)c2=O)c(F)cc1Cl (stereo not shown) [Compound 125, Ethyl 2-{{2-chloro-5-[3,6-dihydro-3-methyl-2,6-dioxo-4-(trifluoromethyl)-1(2H)-pyrimidinyl]-4-fluorophenyl}imino}-5-(methylthio)-4-oxo-3-thiazolidineacetate]
herbicidal rating CASOB ([1]; rate 0.0156 kg/ha): 1.0
herbicidal rating CASOB ([1]; rate 0.0313 kg/ha): 2.0
herbicidal rating CASOB ([1]; rate 0.0625 kg/ha): 2.0
herbicidal rating GALAP ([2]; rate 0.0156 kg/ha): 1.0
herbicidal rating GALAP ([2]; rate 0.0313 kg/ha): 2.0
herbicidal rating GALAP ([2]; rate 0.0625 kg/ha): 5.0
Preemergence herbicidal rating GLXMAW ([3]; rate 0.0156 kg/ha): 0.0
Preemergence herbicidal rating GLXMAW ([3]; rate 0.0313 kg/ha): 0.0
Preemergence herbicidal rating GLXMAW ([3]; rate 0.0625 kg/ha): 0.0
Preemergence herbicidal rating GLXMAW ([3]; rate 0.1250 kg/ha): 3.0
Preemergence herbicidal rating GLXMAW ([3]; rate 0.2500 kg/ha): 4.0
Preemergence herbicidal rating GLXMAW ([3]; rate 0.5000 kg/ha): 7.0
herbicidal rating ZEAMX ([4]; rate 0.0156 kg/ha): 6.7
herbicidal rating ZEAMX ([4]; rate 0.0313 kg/ha): 7.3
herbicidal rating ZEAMX ([4]; rate 0.0625 kg/ha): 8.0
herbicidal effect rating, MOOVA ([5]; 0.0313 kg/ha): 5.0
herbicidal effect rating, MOOVA ([5]; 0.0625 kg/ha): 7.0
herbicidal effect rating, MOOVA ([5]; 0.1250 kg/ha): 7.0
herbicidal effect rating, MOOVA ([5]; 0.2500 kg/ha): 9.0
Preemergence herbicidal rating ORYSAT ([6]; rate 0.0156 kg/ha): 0.0
Preemergence herbicidal rating ORYSAT ([6]; rate 0.0313 kg/ha): 0.0
Preemergence herbicidal rating ORYSAT ([6]; rate 0.0625 kg/ha): 1.0
Preemergence herbicidal rating ORYSAT ([6]; rate 0.1250 kg/ha): 1.0
Preemergence herbicidal rating ORYSAT ([6]; rate 0.2500 kg/ha): 4.0
Preemergence herbicidal rating ORYSAT ([6]; rate 0.5000 kg/ha): 4.0
herbicidal rating CHEAL ([7]; rate 0.0156 kg/ha): 3.0
herbicidal rating CHEAL ([7]; rate 0.0313 kg/ha): 9.0
herbicidal rating CHEAL ([7]; rate 0.0625 kg/ha): 9.0
herbicidal rating ORYSAT ([8]; rate 0.0156 kg/ha): 3.3
herbicidal rating ORYSAT ([8]; rate 0.0313 kg/ha): 4.0
herbicidal rating ORYSAT ([8]; rate 0.0625 kg/ha): 3.7
Preemergence herbicidal rating AMBEL ([9]; rate 0.0156 kg/ha): 0.0
Preemergence herbicidal rating AMBEL ([9]; rate 0.0313 kg/ha): 6.0
Preemergence herbicidal rating AMBEL ([9]; rate 0.0625 kg/ha): 9.0
Preemergence herbicidal rating AMBEL ([9]; rate 0.1250 kg/ha): 9.0
Preemergence herbicidal rating AMBEL ([9]; rate 0.2500 kg/ha): 9.0
Preemergence herbicidal rating AMBEL ([9]; rate 0.5000 kg/ha): 9.0
Preemergence herbicidal rating SETVI ([10]; rate 0.0156 kg/ha): 0.0
Preemergence herbicidal rating SETVI ([10]; rate 0.0313 kg/ha): 0.0
Preemergence herbicidal rating SETVI ([10]; rate 0.0625 kg/ha): 5.0
Preemergence herbicidal rating SETVI ([10]; rate 0.1250 kg/ha): 9.0
Preemergence herbicidal rating SETVI ([10]; rate 0.2500 kg/ha): 9.0
Preemergence herbicidal rating SETVI ([10]; rate 0.5000 kg/ha): 9.0
herbicidal effect rating, CYPSE ([11]; 0.0313 kg/ha): 2.0
herbicidal effect rating, CYPSE ([11]; 0.0625 kg/ha): 4.0
herbicidal effect rating, CYPSE ([11]; 0.1250 kg/ha): 9.0
herbicidal effect rating, CYPSE ([11]; 0.2500 kg/ha): 9.0
